Experimental data reported in PMC5384220 (Nature Communications, 2017).
“Also recorded” adds a separate entry of the source.

Key:
[1] = target: T1, full-length KDM4A (residues 1-1,064) (Homo sapiens, UniProt O75164); experiment: MALDI-TOF MS demethylation assay with full-length KDM4A; assay type: biochemical; settings: CP2 10 µM; H3K9me3 and H3K36me3 peptides 10 µM; 1 h 37°C
T1 construct: full-length KDM4A (residues 1–1,064) purified from HEK293T cells; made in house; host or cells: HEK293T (transient transfection, anti-FLAG M2 immunoprecipitation)
T1 sequence (O75164 1-1064): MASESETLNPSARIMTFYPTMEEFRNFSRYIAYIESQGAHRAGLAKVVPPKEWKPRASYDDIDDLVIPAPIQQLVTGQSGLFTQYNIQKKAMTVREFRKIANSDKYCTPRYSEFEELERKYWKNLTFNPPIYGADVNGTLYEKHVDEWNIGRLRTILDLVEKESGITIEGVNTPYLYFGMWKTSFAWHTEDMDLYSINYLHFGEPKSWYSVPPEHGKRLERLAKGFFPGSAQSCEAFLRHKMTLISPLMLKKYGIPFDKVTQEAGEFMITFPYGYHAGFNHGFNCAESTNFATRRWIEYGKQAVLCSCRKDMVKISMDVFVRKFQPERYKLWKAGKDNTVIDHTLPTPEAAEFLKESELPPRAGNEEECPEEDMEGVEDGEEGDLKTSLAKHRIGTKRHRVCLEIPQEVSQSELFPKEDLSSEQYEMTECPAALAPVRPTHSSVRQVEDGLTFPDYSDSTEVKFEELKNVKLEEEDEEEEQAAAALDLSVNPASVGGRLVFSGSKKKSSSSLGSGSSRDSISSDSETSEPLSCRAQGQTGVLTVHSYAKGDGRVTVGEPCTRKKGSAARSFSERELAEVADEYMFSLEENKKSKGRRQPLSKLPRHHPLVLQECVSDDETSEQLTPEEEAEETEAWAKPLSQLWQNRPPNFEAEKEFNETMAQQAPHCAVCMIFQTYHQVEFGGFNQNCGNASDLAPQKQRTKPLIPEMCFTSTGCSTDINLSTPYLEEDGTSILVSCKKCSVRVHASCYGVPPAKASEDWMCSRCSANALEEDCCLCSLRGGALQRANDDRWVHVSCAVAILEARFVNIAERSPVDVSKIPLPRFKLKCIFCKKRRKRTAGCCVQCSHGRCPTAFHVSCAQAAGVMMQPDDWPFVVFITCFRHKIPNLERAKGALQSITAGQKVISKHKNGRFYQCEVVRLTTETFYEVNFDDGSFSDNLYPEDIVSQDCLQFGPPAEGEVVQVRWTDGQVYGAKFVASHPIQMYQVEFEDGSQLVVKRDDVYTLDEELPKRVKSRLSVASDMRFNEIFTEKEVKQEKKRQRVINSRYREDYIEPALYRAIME
From the text: N-terminally Hexa-His-tagged KDM4A (His-KDM4A1–359) was produced and purified as described. The KDM4A gene encoding for KDM4A protein (residues 1-359) was cloned into the pNIC-Bio3 plasmid, which incorporates a C-terminal AviTag and expressed with biotin supplement in BL21(DE3)Rosetta co-transfected with pCDF-BirA[32]. His-KDM4A with biotin (His-KDM4A-Bio) was purified using nickel affinity chromatography. Complete (>95%) biotinylation of KDM4A was confirmed using electrospray ionization–MS (Waters Micromass LCT Premier). […] The full-length FLAG-tagged KDM4A1–1,064 (ref. [15]) was produced in HEK293T cells. HEK293T cells were grown to 80% confluency in DMEM medium (Sigma) supplemented with Glutamax (Life Technologies), 10% fetal bovine serum (FBS, Sigma). FLAG-tagged KDM4A was transfected using polyethyleneimine. Cells were harvested after 48 h, washed with PBS (Sigma) and lysed (45 min, 4 °C) in 50 mM HEPES (pH 7.5), 150 mM NaCl buffer containing protease inhibitor cocktail (Sigma), 10 μM DNase (Sigma) and 0.1% NP40 (Roche). FLAG-tagged KDM4A was purified by immunoprecipitation using anti-FLAG M2 magnetic beads (Sigma) and washed in 50 mM HEPES (pH 7.5) 150 mM NaCl. The final wash was performed in 50 mM HEPES (pH 7.5) and the resin was used as an enzyme source for the full-length KDM4A.
KDM4A in vitro. […]
(pH 7.5) at 37°C for 1 h. The assay products were analysed by MALDI-TOF MS. […]

[2] = system: H3K9me3/H3K36me3 in HeLa cells; experiment: Immunofluorescence of global histone methylation, 72 h dosing; assay type: cell-based; settings: 72 h treatment
From the text: Supplementary Figure 12. Immunofluorescence analysis of global histone methylation levels after 72hr dosing of cyclic peptides in HeLa cells. (a)-(c) Immunofluorescence analysis of HeLa cells dosed with cyclic peptides for 72 hrs. Maximum intensity projected images of 3D confocal z-stacks showing nuclei stained with […]
DMSO and CP2 treated cells. Bar represents 50µm. Global H3K9me3 (d) and associated nuclei count for the […]
staining, (h) global H3K4me3 and (i) global H3K27me3 staining. An increase in fluorescence intensity, […]
over certain concentration ranges. Average +/- s.e.m (n > 100 cells) are shown except at concentrations of […]
A generic 2OG oxygenase inhibitor 5-carboxy-8-
Immunofluorescence (IF) assay […]
with 0.5% FBS and 1% Pen-Strep. […]
grade plate (Becton Dickinson) and left overnight to adhere. Cells were dosed with cyclic […]
After 30min blocking (3% FBS in […]
three times after each incubation. […]
Image acquisition and analysis […]
image immunostained cells in a 96-well plate configuration. For each well, the system […]
The average intensity for each […]
analysed using GraphPad Prism 5. […]

His-KDM4A1-359-Bio = target: T2, His-KDM4A1-359-Bio (Homo sapiens, UniProt O75164); experiment: Biolayer interferometry binding to KDM4A
T2 construct: KDM4A protein (residues 1-359) was cloned into the pNIC-Bio3 plasmid, which incorporates a C-terminal AviTag; made in house; host or cells: E. coli BL21(DE3)Rosetta co-transfected with pCDF-BirA
T2 sequence (O75164 1-359): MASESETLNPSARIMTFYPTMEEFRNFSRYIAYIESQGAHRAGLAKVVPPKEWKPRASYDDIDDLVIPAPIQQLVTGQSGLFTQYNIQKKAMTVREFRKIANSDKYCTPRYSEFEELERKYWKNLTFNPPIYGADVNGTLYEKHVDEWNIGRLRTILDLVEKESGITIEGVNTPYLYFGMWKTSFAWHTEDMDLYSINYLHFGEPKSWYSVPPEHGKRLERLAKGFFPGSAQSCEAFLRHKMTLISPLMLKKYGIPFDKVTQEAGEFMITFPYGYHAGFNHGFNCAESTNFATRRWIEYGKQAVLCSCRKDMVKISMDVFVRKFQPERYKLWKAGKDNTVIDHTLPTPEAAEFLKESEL
Description: The formaldehyde dehydrogenase coupled KDM assay was used to determine the mode of inhibition[34], using 0.5 μM His-KDM4A1–359. Prism 5.0 (GraphPad) was used to fit in mix-mode inhibition, to determine the kinetic parameters. Binding constants for CPs and H3(1–15)K9me3 were measured using biolayer interferometry (OctetRed 384, ForteBio) in buffer (50 mM HEPES (pH 7.5), 150 mM NaCl, 10 μM ammonium iron(II) sulphate). His-KDM4A1–359-Bio (70 nM) was immobilized onto super streptavidin biosensor and subjected to different peptide concentrations in buffer. Data analysis was performed using ForteBio Data Aalysis (v6.4).
KDM4A1-359 was immobilized and analysed for binding to peptides at different concentrations.
The concentration of KDM4A in the assay mixture was 0.5 µM.

## DYVYNTRSGWRWYTC [CP2]
[1]
  Inhibition of demethylation by full-length KDM4A: inhibits
[2]
  Change in global H3K9me3/H3K36me3 levels: did not have any apparent effect; also recorded: no discernible changes
His-KDM4A1-359-Bio
  KDM4A Binding kdiss: 0.00407 s⁻¹
  KDM4A Binding kon: 137000 M⁻¹ s⁻¹
